This note sets out measurements from patent US20130273564A1, “DISPERSION INJECTION METHODS FOR BIOSENSING” (priority 2010, published 2013).

Each structure is given as a SMILES string.

The data set deals with partially denatured carbonic anhydrase II. The following applies: sigmoidal TDi, degraded surface, 10° C., global two-site interaction model. As to the method: A second sensing surface remained uncoated to provide an accurate reference surface. […] FCI was performed by separately injecting 50 μL of each dilution at a rate of 50 μL min^−1. EDTA was excluded from the buffer to maintain the binding activity of the Zn-dependent carbonic anhydrase 11.
Two separate sigmoidal TDi assays were performed. The first sigmoidal TDi assay (FIG. 8B) was performed by injecting 250 μL of analyte sample at a flow rate of 100 μL min^−1 using a dispersion tube having a total volume capacity of 512 μL and a diameter of 0.50 mm. […] The second sigmoidal TDi assay (FIG. 8C) was performed by injecting 250 μL of analyte sample at a flow rate of 50 μL min^−1 using a dispersion tube having a total volume capacity of 512 μL and a diameter of 0.50 mm. […] The carbonic anhydrase II-coated surface was permitted to degrade at 25° C. for several days before performing the sigmoid TDi analysis. The second TDi assay was performed at 10° C. to preserve weak non-specific binding in order to mimic a realistic complex data set.

As for `NS(=O)(=O)c1cc(C(=O)O)c(NCc2ccco2)cc1Cl` [furosemide], the D was 4.49(1)×10^−10 m^2s^−1.
